One compound from patent US11484539B2, “Compounds and their uses for alleviating menopause-associated symptoms” (Estetra SPRL, priority 2018, dated 2022) can be followed below.

The test system of data set [1] is post-menopausal women. Briefly: Number of patients with biopsies (endometrial biopsy). The class given is in vivo. As to the method: If during the course of the trial, a double layer endometrial thickness ≥15 mm was detected on TVUS and/or abnormal uterine bleeding (in the judgement of the gynecologist in light of the oestrogen therapy) was reported by a non-hysterectomised person, they underwent an endometrial biopsy and was treated with progestin (10 mg dydrogesterone) QD until end of Week 11 in a sequential way (i.e., a 14 day progestin treatment period followed by a 14 day progestin treatment pause) in addition to the E4/placebo treatment. […] If an abnormal uterine bleeding occurred again after a first normal endometrial biopsy, a thorough gynaecological examination and a TVUS were performed. If necessary in the judgment of the gynecologist, a second endometrial biopsy was performed. After the E4/Placebo treatment period, all non-hysterectomised subjects (including those having received the progestin previously) received progestin therapy for 14 days with 10 mg dydrogesterone QD.
1. Number of patients with biopsies

Data set [2] concerns post-menopausal women. Description: Menopause Rating Scale (MRS), total MRS score. The class given is in vivo. Set-up: key: 0 = asymptomatic, 44 = highest degree of complaints. An excerpt:
As used herein, the terms “Quality of Life” (and the abbreviation “QoL”) refers to a parameter which can be assessed, for example, by using questionnaires, such as, by way of example and not limitation, the “Menopause Rating Scale” questionnaire (Heinemann et al., 2003, “International versions of the Menopause Rating Scale (MRS)” Health Qual Life Outcomes 1: 28; Heinemann et al., 2004, “The Menopause Rating Scale (MRS) scale: A methodological review”. Health Qual Life Outcomes 2: 45; Heinemann et al., 2004, “The Menopause Rating Scale (MRS) as outcome measure for hormone treatment? A validation study”. Health Qual Life Outcomes 2:67; as further detailed below in Example 1 Section C.) or the MENQOL questionnaire (The Menopause-specific Quality of Life (MENQOL) questionnaire, Hilditch et al.; Maturitas 1996; A menopause-specific quality of life questionnaire: development and psychometric properties; 24(3); p. 161-175).
The Menopause Rating Scale (MRS) is a health-related quality of life scale allowing the measure of severity of age-/menopause-related complaints by rating a profile of symptoms (Heinemann et al., 2003, “International versions of the Menopause Rating Scale (MRS)” Health Qual Life Outcomes 1: 28; Heinemann et al., 2004, “The Menopause Rating Scale (MRS) scale: A methodological review”. Health Qual Life Outcomes 2: 45; Heinemann et al., 2004, “The Menopause Rating Scale (MRS) as outcome measure for hormone treatment? A validation study”. Health Qual Life Outcomes 2:67).
The score increases point by point with increasing severity of subjectively perceived complaints in each one of 11 items (severity expressed in 0 to 4 points in each item). By checking these 5 possible boxes of “severity” for each of the items in the questionnaire, the respondent provides their personal perception. The total MRS score ranges between 0 (asymptomatic) to 44 (highest degree of complaints). The minimal/maximal scores vary between three dimensions depending on the number of complaints allocated to the respective dimension of symptoms (Heinemann et al., 2003, Health Qual Life Outcomes 1: 28): • 1. psychological symptoms: 0 to 16 scoring points (4 symptoms: depressed, irritable, anxious, exhausted); • 2. somato-vegetative symptoms: 0 to 16 points (4 symptoms: sweating/flush, cardiac complaints, sleeping disorders, joint & muscle complaints); • 3. urogenital symptoms: 0 to 12 points (3 symptoms: sexual problems, urinary complaints, vaginal dryness).

As for `C[C@]12CC[C@@H]3c4ccc(O)cc4CC[C@H]3[C@@H]1[C@@H](O)[C@@H](O)[C@@H]2O` [E4, 1,3,5 (10)-estratrien-3,15alpha,16alpha,17beta-tetrol], the “Number of patients with biopsies” value with post-menopausal women [1] (2.5 mg) is reported as 4; with post-menopausal women [1] (5 mg) it was 5; in the data set on post-menopausal women [1] (10 mg), 11; in the data set on post-menopausal women [1] (15 mg) it was 9. Also, in the data set on post-menopausal women [1] (15 mg per day group), the “Requirements for biopsies compared with the 10 mg per day group” value is reported as “less requirements for biopsies”. Moreover, the “Total MRS Score, Mean” value in the data set with post-menopausal women [2] (2.5 mg, Baseline) was 16.5; with post-menopausal women [2] (2.5 mg, Week 12), 9.5; in the data set with post-menopausal women [2] (2.5 mg, week 4), 10.3; in the data set with post-menopausal women [2] (5 mg, Baseline), 16.5; in the data set with post-menopausal women [2] (5 mg, Week 12), 11.0; in the data set on post-menopausal women [2] (5 mg, week 4), 10.5. The “Total MRS Score, Mean” value in the data set with post-menopausal women [2] (10 mg, Baseline) is reported as 17.6; in the data set on post-menopausal women [2] (10 mg, Week 12) it was 9.7; in the data set on post-menopausal women [2] (10 mg, week 4), 11.7; with post-menopausal women [2] (15 mg, Baseline) it was 16.4; in the data set with post-menopausal women [2] (15 mg, Week 12), 8.1; with post-menopausal women [2] (15 mg, week 4), 8.7.
